Data taken from the NIST ThermoML archive (doi:10.1016/j.jct.2014.04.022).
Where “and” joins values, the source holds several entries; their conditions need not be identical. Equal values may be shown once. Numbers after ± are expanded uncertainties.

Legend:
[1] = Molar enthalpy of transition or fusion; conditions: Crystal; DSC
[2] = molar heat capacity at constant pressure; conditions: 101.33 kPa

CC12CCC(CC1)C(C)(C)O2 [1,3,3-trimethyl-2-oxabicyclo[2.2.2]octane]
Conditions | vapor or sublimation pressure
238.2 K, Crystal, Closed cell (Static) method | 0.00051 ± 0.00011 kPa and 0.000512 ± 0.00011 kPa
243.2 K, Crystal, Closed cell (Static) method | 0.001022 ± 0.00011 kPa and 0.001023 ± 0.00011 kPa
248.15 K, Crystal, Closed cell (Static) method | 0.00197 ± 0.00013 kPa and 0.001971 ± 0.00013 kPa and 0.001972 ± 0.00013 kPa
253.15 K, Crystal, Closed cell (Static) method | 0.003705 ± 0.00017 kPa and 0.003709 ± 0.00017 kPa and 0.003703 ± 0.00017 kPa
253.15 K, Metastable liquid, Closed cell (Static) method | 0.006217 ± 0.00026 kPa and 0.006221 ± 0.00026 kPa and 0.006222 ± 0.00026 kPa
258.15 K, Crystal, Closed cell (Static) method | 0.006771 ± 0.00028 kPa and 0.006776 ± 0.00028 kPa and 0.006782 ± 0.00028 kPa
258.15 K, Metastable liquid, Closed cell (Static) method | 0.01 ± 0.0004 kPa and 0.01001 ± 0.0004 kPa
263.15 K, Crystal, Closed cell (Static) method | 0.01211 ± 0.00048 kPa
263.15 K, Metastable liquid, Closed cell (Static) method | 0.01574 ± 0.00056 kPa and 0.01575 ± 0.00056 kPa and 0.01576 ± 0.00056 kPa
268.15 K, Crystal, Closed cell (Static) method | 0.02109 ± 0.00064 kPa and 0.0211 ± 0.00064 kPa
268.15 K, Metastable liquid, Closed cell (Static) method | 0.02431 ± 0.00069 kPa [middle of 4 runs]
273.15 K, Crystal, Closed cell (Static) method | 0.03596 ± 0.00088 kPa and 0.03597 ± 0.00088 kPa
273.65 K, Metastable liquid, Closed cell (Static) method | 0.03833 ± 0.00092 kPa and 0.03835 ± 0.00092 kPa and 0.03836 ± 0.00092 kPa
278.15 K, Closed cell (Static) method, Liquid | 0.05478 ± 0.0012 kPa and 0.0548 ± 0.0012 kPa
283.15 K, Closed cell (Static) method, Liquid | 0.0801 ± 0.0016 kPa and 0.08012 ± 0.0016 kPa
288.15 K, Closed cell (Static) method, Liquid | 0.1151 ± 0.0022 kPa and 0.1152 ± 0.0022 kPa
293.15 K, Closed cell (Static) method, Liquid | 0.1637 ± 0.0027 kPa
298.15 K, Closed cell (Static) method, Liquid | 0.2295 ± 0.0035 kPa and 0.2296 ± 0.0035 kPa
303.15 K, Closed cell (Static) method, Liquid | 0.3169 ± 0.0046 kPa and 0.317 ± 0.0046 kPa

Conditions | Normal melting temperature [°C]
Crystal, DTA | 1.0 ± 0.5

Conditions | Molar enthalpy of transition or fusion [kcal/mol]
[1] | 3.3 ± 0.0956

[2]
Conditions | molar heat capacity at constant pressure [J/K/mol]
273.4 K, Metastable liquid, Large sample (1 g) DSC | 257.8 ± 4.5
278.5 K, Large sample (1 g) DSC, Liquid | 260.2 ± 4.5
283.6 K, Large sample (1 g) DSC, Liquid | 262.3 ± 4.6
288.7 K, Large sample (1 g) DSC, Liquid | 264.6 ± 4.6
293.8 K, Large sample (1 g) DSC, Liquid | 267.3 ± 4.7
298.9 K, Large sample (1 g) DSC, Liquid | 270.7 ± 4.7
304 K, Large sample (1 g) DSC, Liquid | 273.3 ± 4.7
309.1 K, Large sample (1 g) DSC, Liquid | 276.1 ± 4.8
314.2 K, Large sample (1 g) DSC, Liquid | 279.3 ± 4.8
319.4 K, Large sample (1 g) DSC, Liquid | 281.4 ± 4.9
324.5 K, Large sample (1 g) DSC, Liquid | 284.6 ± 4.9
329.6 K, Large sample (1 g) DSC, Liquid | 288 ± 5
334.7 K, Large sample (1 g) DSC, Liquid | 290.9 ± 5.1
339.8 K, Large sample (1 g) DSC, Liquid | 294.2 ± 5.1
344.9 K, Large sample (1 g) DSC, Liquid | 297.3 ± 5.2
350 K, Large sample (1 g) DSC, Liquid | 301.2 ± 5.2
355.1 K, Large sample (1 g) DSC, Liquid | 304.6 ± 5.2

CC1=CC[C@@H]2[C@H](C1)C2(C)C [(+)-3-carene]
Conditions | molar heat capacity at constant pressure [J/K/mol] | vapor or sublimation pressure
238.2 K, Liquid, Closed cell (Static) method | – | 0.00159 ± 0.00012 kPa and 0.001592 ± 0.00012 kPa and 0.001594 ± 0.00012 kPa
243.2 K, Liquid, Closed cell (Static) method | – | 0.002721 ± 0.00015 kPa and 0.002723 ± 0.00015 kPa
248.15 K, Liquid, Closed cell (Static) method | – | 0.004526 ± 0.0002 kPa and 0.004529 ± 0.0002 kPa
253.15 K, Liquid, Closed cell (Static) method | – | 0.007382 ± 0.0003 kPa and 0.007383 ± 0.0003 kPa and 0.007377 ± 0.0003 kPa
258.15 K, Liquid, Closed cell (Static) method | – | 0.01179 ± 0.00047 kPa and 0.0118 ± 0.00047 kPa
263.15 K, Liquid, Closed cell (Static) method | – | 0.01845 ± 0.0006 kPa and 0.01846 ± 0.0006 kPa
268.15 K, Liquid, Closed cell (Static) method | – | 0.02832 ± 0.00075 kPa and 0.02833 ± 0.00075 kPa
273.15 K, Liquid, Closed cell (Static) method | – | 0.04266 ± 0.00099 kPa and 0.04267 ± 0.00099 kPa
273.65 K, Liquid, Closed cell (Static) method | – | 0.0444 ± 0.001 kPa and 0.04442 ± 0.001 kPa and 0.04443 ± 0.001 kPa
278.15 K, Liquid, Closed cell (Static) method | – | 0.06318 ± 0.0014 kPa and 0.06319 ± 0.0014 kPa
283.15 K, Liquid, Closed cell (Static) method | – | 0.09204 ± 0.0019 kPa and 0.09205 ± 0.0019 kPa
288.15 K, Liquid, Closed cell (Static) method | – | 0.1321 ± 0.0023 kPa
293.15 K, Liquid, Closed cell (Static) method | – | 0.1868 ± 0.003 kPa
298.15 K, Liquid, Closed cell (Static) method | – | 0.2604 ± 0.0039 kPa and 0.2605 ± 0.0039 kPa
303.15 K, Liquid, Closed cell (Static) method | – | 0.3585 ± 0.0051 kPa
308.15 K, Liquid, Closed cell (Static) method | – | 0.4873 ± 0.0066 kPa
[2], 258.1 K, Liquid | 235.6 ± 7.3 | –
[2], 263.2 K, Liquid | 237.8 ± 7.4 | –
[2], 268.3 K, Liquid | 240.2 ± 7.5 | –
[2], 273.4 K, Liquid | 242.4 ± 7.5 | –
[2], 278.5 K, Liquid | 244.9 ± 7.6 | –
[2], 283.6 K, Liquid | 247.2 ± 7.6 | –
[2], 288.7 K, Liquid | 249.6 ± 7.7 | –
[2], 293.8 K, Liquid | 251.9 ± 7.8 | –
[2], 298.9 K, Liquid | 254.3 ± 7.9 | –
[2], 304 K, Liquid | 256.6 ± 8 | –
[2], 309.1 K, Liquid | 259 ± 8.1 | –
[2], 314.2 K, Liquid | 261.4 ± 8.1 | –
[2], 319.4 K, Liquid | 263.7 ± 8.1 | –
[2], 324.5 K, Liquid | 266.3 ± 8.2 | –
[2], 329.6 K, Liquid | 268.9 ± 8.3 | –
[2], 334.7 K, Liquid | 271.5 ± 8.4 | –
[2], 339.8 K, Liquid | 274 ± 8.5 | –
[2], 344.9 K, Liquid | 276.6 ± 8.6 | –
[2], 350 K, Liquid | 279.3 ± 8.6 | –
[2], 355.1 K, Liquid | 281.8 ± 8.7 | –

Liquid
Conditions | vapor or sublimation pressure
273.15 K | 0.04241 ± 0.0022 kPa and 0.04243 ± 0.0022 kPa and 0.04244 ± 0.0022 kPa
278.15 K | 0.06282 ± 0.0029 kPa and 0.06283 ± 0.0029 kPa
283.15 K | 0.09152 ± 0.004 kPa and 0.09153 ± 0.004 kPa and 0.09154 ± 0.004 kPa
288.15 K | 0.1313 ± 0.0051 kPa
293.15 K | 0.1855 ± 0.0065 kPa
298.15 K | 0.2584 ± 0.0086 kPa and 0.2585 ± 0.0086 kPa
303.15 K | 0.3553 ± 0.011 kPa
308.15 K | 0.4825 ± 0.015 kPa

[2], Liquid, Large sample (1 g) DSC
Conditions | molar heat capacity at constant pressure [J/K/mol]
260.1 K | 236.9 ± 4.1
265 K | 239.2 ± 4.2
270 K | 241.6 ± 4.2
275 K | 244.1 ± 4.2
280 K | 246.3 ± 4.2
285 K | 248.4 ± 4.3
290 K | 250.6 ± 4.3
295 K | 252.6 ± 4.4
300 K | 254.8 ± 4.4
305 K | 257.2 ± 4.5
310 K | 259.6 ± 4.5
